Broadly, the EC50 is the concentration that produces a half-maximal response.

Data on one compound can be found in doi:10.1101/2022.05.23.493001v4 (biorxiv, 2022).

The subject of the assay is STING in THP-1 cells (endogenous). The experiment in a line: cells. The note with it: Homo sapiens, THP-1, 6 h, read-out: EC50 IFN-β THP-1.

On to `CSc1c(Cl)ccc2c(=O)c3ccc(C(C)(C)C)cc3n(CC(=O)O)c12` [SNX281], for which the EC50 was 6.6 µM.
